The record followed here is patent US9265253B2, “Use of macrocyclic picolinamides as fungicides” (DOW AGROSCIENCES LLC, priority 2013, dated 2016).

For one data set, the system named is Cercospora beticola. The data set is described as follows: Leaf Spot of Sugar Beets (CERCBE) disease control. It is filed as in vivo. The conditions noted are these: Cercospora beticola, topical, 24 h, 1 Day Protectant, sugar beet, read-out: Disease Control CERCBE 1 DP. As for the experimental part:
Technical grades of materials were dissolved in acetone, which were then mixed with nine volumes of water containing 110 ppm Triton X-100. The fungicide solutions were applied onto wheat seedlings using an automated booth sprayer to run-off. All sprayed plants were allowed to air dry prior to further handling. All fungicides were evaluated using the aforementioned method for their activity vs. all target diseases. Wheat leaf blotch and brown rust activity were also evaluated using track spray applications, in which case the fungicides were formulated as EC formulations, containing 0.1% Trycol 5941 in the spray solutions. Wheat plants (variety Yuma) were grown from seed in a greenhouse in 50% mineral soil/50% soil-less Metro mix until the first leaf was fully emerged, with 7-10 seedlings per pot. These plants were inoculated with an aqueous spore suspension of Septoria tritici either prior to or after fungicide treatments. After inoculation the plants were kept in 100% relative humidity (one day in a dark dew chamber followed by two to three days in a lighted dew chamber at 20° C.) to permit spores to germinate and infect the leaf. The plants were then transferred to a greenhouse set at 20° C. for disease to develop. When disease symptoms were fully expressed on the 1st leaves of untreated plants, infection levels were assessed on a scale of 0 to 100 percent disease severity. Percent disease control was calculated using the ratio of disease severity on treated plants relative to untreated plants. Sugar beet plants (variety HH88) were grown in soil-less Metro mix and trimmed regularly to maintain a uniform plant size prior to test. Plants were inoculated with a spore suspension 24 hr after fungicide treatments. Inoculated plants were kept in a dew chamber at 22° C. for 48 hr then incubated in a greenhouse set at 24° C. under a clear plastic hood with bottom ventilation until disease symptoms were fully expressed. Fungicide formulation, application and disease assessment on the sprayed leaves followed the procedures as described in the Example A.

For data set [1], the system named is Blumeria graminis f. sp. tritici; Synonym: Erysiphe graminis f. sp. tritici. The data set is described as follows: Wheat Powdery Mildew (ERYSGT) disease control. It is filed as in vivo. The conditions noted are these: 100 ppm, 1 Day Protectant. As for the experimental part:
Technical grades of materials were dissolved in acetone, which were then mixed with nine volumes of water containing 110 ppm Triton X-100. The fungicide solutions were applied onto wheat seedlings using an automated booth sprayer to run-off. All sprayed plants were allowed to air dry prior to further handling. All fungicides were evaluated using the aforementioned method for their activity vs. all target diseases. Wheat leaf blotch and brown rust activity were also evaluated using track spray applications, in which case the fungicides were formulated as EC formulations, containing 0.1% Trycol 5941 in the spray solutions. Wheat plants (variety Yuma) were grown from seed in a greenhouse in 50% mineral soil/50% soil-less Metro mix until the first leaf was fully emerged, with 7-10 seedlings per pot. These plants were inoculated with an aqueous spore suspension of Septoria tritici either prior to or after fungicide treatments. […] When disease symptoms were fully expressed on the 1st leaves of untreated plants, infection levels were assessed on a scale of 0 to 100 percent disease severity. Percent disease control was calculated using the ratio of disease severity on treated plants relative to untreated plants. […]

As to `COc1ccnc(C(=O)N[C@H]2CCC[C@H](Cc3ccccc3)[C@@H](OCC(C)C)[C@H](C)OC2=O)c1OCOC(C)=O` [Compound F106], in the data set with Cercospora beticola, the pest or weed control at 100 ppm fell in the range of 80 to 100%. For the same molecule, the “Disease Control ERYSGT 1 DP” value in data set [1] is “A (80-100)”.

As to `COc1ccnc(C(=O)N[C@H]2CCC[C@H](Cc3ccccc3)[C@@H](OCC(C)C)[C@H](C)OC2=O)c1OCOC(=O)C(C)C` [Compound F151], the melting point (usually the temperature, or range, at which the solid turns liquid) was in the range of 122 to 124 °C. In the data set with Cercospora beticola, the pest or weed control at 100 ppm was in the range of 80 to 100%. Besides, the “Disease Control ERYSGT 1 DP” value in data set [1] is “A (80-100)”.
